Drawing on EP0168515A2, “Process for the preparation of steffimycinones, analogues of steffimycinones so obtained, intermediates useful in the synthesis of those compounds, use of these compounds as antibacterials acid for the synthesis of antitumor products” (LABORATOIRES HOECHST S.A., priority 1984, dated 1986), this text covers Wachstum for 1 compound.

For assay [1], the system named is Bacillus pumilus (CNCM 7618). Kind of assay: Bactericidal action: growth inhibition test. It counts as cell-based. Conditions: 100 µg/ml in 60% Dimethylsulfoxyd / 40% destilliertem Wasser, after 24 Stunden. The method, then: (§1) Das Produkt der Formel II wurde an folgenden Mikroorganismen geprüft: • Bacillus pumilus (CNCM 7618) und • Bacillus subtilis (ATCC 6533)
(§2) Es wurde auf eine Konzentration von 100 µg/ml in einem Gemisch aus 60% Dimethylsulfoxyd und 40% destilliertem Wasser solubilisiert.

Assay [2] deals with Bacillus subtilis (ATCC 6533). The experiment in a line: Bactericidal action: growth inhibition test. It counts as cell-based. Conditions: 100 µg/ml in 60% Dimethylsulfoxyd / 40% destilliertem Wasser, after 24 Stunden. The method, then: as §1, §2

Turning to `COc1cc(O)c2c(c1)C(=O)c1cc3c(c(O)c1C2=O)C(O)CC(C)(O)C3=O` (single isomer, unassigned; (+)) [Verbindung II, (+)-8-Desmethoxy-steffimycinon], the Wachstum result in assay [1] and in assay [2] was “völlig gehemmt” in each case.
